Consider three molecules from patent US9023789B2, “Amylin analogs and pharmaceutical compositions thereof” (Novo Nordisk A/S, priority 2012, dated 2015).

≈ marks a conversion by molar mass, not a printed value. Where two headings read alike, the source gives them in different places. Numbered stars: 1 amine (or outer) side, 2 acyl side, 3 side chain; on linkers, the order of the positions; unused ones are H or OH. Bridge positions count the residues as written; N and C are the ends. Side chains are listed from the residue outwards. Peptide text beside a SMILES is read from it. * marks the point of attachment. C20 diacid = O=C(O)CCCCCCCCCCCCCCCCCCC(=O)*; γGlu = O=C(O)[C@H](CCC(=O)[*:2])N[*:1]

Data set [1] is described as follows: ASSAY (III) ThT fibrillation assay for physical stability. The data set is classed as physicochemical. The method in brief:
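Physical stability scored by ThT fluorescence (444 nm excitation, 485 nm emission) tracked every 20 min during 37 °C incubation with 960 rpm shaking, ThT at 1 μM final. Values are replicate means with SD at chosen times; HPLC against pramlintide standard gives initial and post-assay soluble concentrations.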

The nature of data set [2]: ASSAY (IV) determination of solubility. The data set is classed as physicochemical. The procedure, abridged: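 Solubility measured by UPLC of supernatant after centrifugation, following 18 h at room temperature. Peptide ([…] in water) was diluted 1:1 into 100 mM glycylglycine (pH 3.0, 4.0, 5.0) or bistrispropane (pH 6.0-8.0).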
For data set [3], the target named is T1, rat amylin receptor (rat calcitonin receptor + rat RAMP 3) (Rattus norvegicus, UniProt P32214+Q9JJ73).
T1 construct: expressed in transfected cells; host or cells: BHK tk'ts 13 (transient, FuGENE 6), membranes
T1 sequence (P32214 25-479 isoform P32214-2 limits assumed): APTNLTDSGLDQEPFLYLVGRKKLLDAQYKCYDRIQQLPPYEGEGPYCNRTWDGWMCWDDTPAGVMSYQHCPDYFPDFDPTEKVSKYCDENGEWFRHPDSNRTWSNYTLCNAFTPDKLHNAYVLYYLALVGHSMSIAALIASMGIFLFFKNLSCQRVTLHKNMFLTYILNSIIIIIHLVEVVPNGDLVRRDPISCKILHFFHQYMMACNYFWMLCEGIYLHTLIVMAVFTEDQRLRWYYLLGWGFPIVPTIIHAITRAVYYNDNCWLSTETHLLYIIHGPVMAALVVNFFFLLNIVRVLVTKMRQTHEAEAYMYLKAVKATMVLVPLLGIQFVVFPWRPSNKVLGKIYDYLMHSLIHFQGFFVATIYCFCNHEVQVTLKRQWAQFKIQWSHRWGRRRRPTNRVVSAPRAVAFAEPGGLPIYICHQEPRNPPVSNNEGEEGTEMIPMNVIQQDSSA
T1 sequence (Q9JJ73 23-147 partner): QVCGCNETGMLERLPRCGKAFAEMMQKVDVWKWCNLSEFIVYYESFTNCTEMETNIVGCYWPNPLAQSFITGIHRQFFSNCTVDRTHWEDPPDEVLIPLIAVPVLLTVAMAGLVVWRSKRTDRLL
In words: ASSAY (VI) binding to the rat amylin receptor. The note with it: for IC50: binding to rat amylin receptor, read-out: rAmylin-R bind IC50. The method in brief: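 The cell-membrane assay assessed binding at the rat amylin receptor. BHK tk′ts 13 cells were transfected transiently with rat calcitonin receptor, with FuGENE® 6 (Roche) as the transfection reagent, used per the manufacturer's recommendations. Approximately 48 hours after transfection the cells were harvested, and membranes were prepared for measuring binding.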

Setting [4] is: bistrispropane buffer, pH 6.5, read-out: Solubility pH 6.5 Concentration.
The mark [5] stands for this setting: bistrispropane buffer, pH 7.5, read-out: Solubility pH 7.5 Concentration.
[6] abbreviates: bistrispropane buffer, pH 6.0, read-out: Solubility pH 6.0 Concentration.
[7] abbreviates: bistrispropane buffer, pH 7.0, read-out: Solubility pH 7.0 Concentration.
[8] abbreviates: bistrispropane buffer, pH 8.0, read-out: Solubility pH 8.0 Concentration.
The mark [9] stands for this setting: glycylglycine buffer, pH 3.0, read-out: Solubility pH 3.0 Concentration.
[10] abbreviates: glycylglycine buffer, pH 4.0, read-out: Solubility pH 4.0 Concentration.
Where [11] appears, read: glycylglycine buffer, pH 5.0, read-out: Solubility pH 5.0 Concentration.
Setting [12] is: Table 7, rat binding selectivity, rCTR IC50 / rAmylin-R IC50.
Setting [13] is: Table 7a (preferred compounds), rat binding selectivity, rCTR IC50 / rAmylin-R IC50.
Setting [14] is: ratio of rCTR bind IC50 to rAmylin-R bind IC50.

Take `CC[C@H](C)[C@H](NC(=O)[C@H](C)NC(=O)CNC(=O)[C@H](Cc1ccccc1)NC(=O)[C@H](CC(N)=O)NC(=O)[C@@H]1CCCN1C(=O)[C@H](CO)NC(=O)[C@H](CO)NC(=O)[C@H](Cc1c[nH]cn1)NC(=O)[C@H](CCCNC(=N)N)NC(=O)[C@H](CC(C)C)NC(=O)[C@H](Cc1ccccc1)NC(=O)[C@H](CCC(=O)O)NC(=O)[C@H](C)NC(=O)[C@H](CC(C)C)NC(=O)[C@H](CCCNC(=N)N)NC(=O)[C@H](CCC(N)=O)NC(=O)[C@@H](NC(=O)[C@H](C)NC(=O)[C@@H]1CSSC[C@H](NC(=O)[C@@H](N)CCCCNC(=O)CC[C@H](NC(=O)CC[C@H](NC(=O)CCCCCCCCCCCCCCCCCCC(=O)O)C(=O)O)C(=O)O)C(=O)N[C@@H](CC(N)=O)C(=O)N[C@@H]([C@@H](C)O)C(=O)N[C@@H](C)C(=O)N[C@@H]([C@@H](C)O)C(=O)N1)[C@@H](C)O)C(=O)N1CCC[C@H]1C(=O)N[C@@H](CO)C(=O)N[C@@H](CO)C(=O)N[C@H](C(=O)N[C@@H](CC(N)=O)C(=O)N[C@H](C(=O)NCC(=O)N[C@@H](Cc1c[nH]cn1)C(=O)N[C@@H](CC(N)=O)C(=O)N[C@H](C(=O)N[C@@H](Cc1ccc(O)cc1)C(N)=O)[C@@H](C)O)C(C)C)[C@@H](C)O` [Example 87] (H-K([γGlu-γGlu-C20 diacid])CNTATCATQRLAEFLRHSSPNFGAIPSSTNVGHNTY-NH2; disulfide 2-7): the “ThT pH 4.0 lag time (h)” value in data set [1] worked out at 45 h. In addition, the solubility at 18 h in data set [2] (setting [4]) is 144 µM (≈ 659 µg/mL); in data set [2] (setting [5]), no less than 200 µM; in data set [2] (setting [6]), 156 µM (≈ 714 µg/mL); in data set [2] (setting [7]), 146 µM (≈ 668 µg/mL); in data set [2] (setting [8]), no less than 200 µM; in data set [2] (setting [9]), no less than 200 µM. Also, the solubility at 18 h in data set [2] (setting [10]) and in data set [2] (setting [11]) was no less than 200 µM in each case. Moreover, the 50% inhibitory concentration (IC50) in data set [3] (Table 7) is 2.07 nM. The “Ratio rCT/rAmylin binding” value in data set [3] (setting [12]), in data set [3] (setting [13]) and in data set [3] (setting [14]) was 45.6 each time.
On to `CC[C@H](C)[C@H](NC(=O)[C@H](C)NC(=O)CNC(=O)[C@H](Cc1ccccc1)NC(=O)[C@H](CC(N)=O)NC(=O)[C@@H]1CCCN1C(=O)[C@H](CO)NC(=O)[C@H](CO)NC(=O)[C@H](Cc1c[nH]cn1)NC(=O)[C@H](CCCNC(=N)N)NC(=O)[C@H](CC(C)C)NC(=O)[C@H](Cc1ccccc1)NC(=O)[C@H](CCC(=O)O)NC(=O)[C@H](C)NC(=O)[C@H](CC(C)C)NC(=O)[C@H](CCCNC(=N)N)NC(=O)[C@H](CCC(N)=O)NC(=O)[C@@H](NC(=O)[C@H](C)NC(=O)[C@@H]1CSSC[C@H](NC(=O)[C@@H](N)CCCCNC(=O)CC[C@H](NC(=O)CC[C@H](NC(=O)CCCCCCCCCCCCCCCCCCC(=O)O)C(=O)O)C(=O)O)C(=O)N[C@@H](CC(N)=O)C(=O)N[C@@H]([C@@H](C)O)C(=O)N[C@@H](C)C(=O)N[C@@H]([C@@H](C)O)C(=O)N1)[C@@H](C)O)C(=O)N1CCC[C@H]1C(=O)N[C@@H](CO)C(=O)N[C@@H](CO)C(=O)N[C@H](C(=O)N[C@@H](CC(N)=O)C(=O)N[C@H](C(=O)NCC(=O)N[C@@H](CCCNC(=N)N)C(=O)N[C@@H](CC(N)=O)C(=O)N[C@H](C(=O)N[C@@H](Cc1ccc(O)cc1)C(N)=O)[C@@H](C)O)C(C)C)[C@@H](C)O` [Example 88] (H-K([γGlu-γGlu-C20 diacid])CNTATCATQRLAEFLRHSSPNFGAIPSSTNVGRNTY-NH2; disulfide 2-7), for which the “ThT pH 4.0 lag time (h)” value in data set [1] turned out to be 45 h. The solubility at 18 h in data set [2] (setting [4]) was no less than 200 µM; in data set [2] (setting [5]), 113 µM (≈ 519 µg/mL); in data set [2] (setting [6]), no less than 200 µM; in data set [2] (setting [7]), 162 µM (≈ 744 µg/mL); in data set [2] (setting [8]), 108 µM (≈ 496 µg/mL); in data set [2] (setting [9]), no less than 200 µM. For the same molecule, the solubility at 18 h in data set [2] (setting [10]) and in data set [2] (setting [11]) was no less than 200 µM each time. In addition, the IC50 in data set [3] (Table 7) is 2.31 nM. The “Ratio rCT/rAmylin binding” value in data set [3] (setting [12]), in data set [3] (setting [13]) and in data set [3] (setting [14]) was 84.9 in each case.
As for `CC[C@H](C)[C@H](NC(=O)[C@H](C)NC(=O)CNC(=O)[C@H](Cc1ccccc1)NC(=O)[C@H](CC(N)=O)NC(=O)[C@@H]1CCCN1C(=O)[C@H](CO)NC(=O)[C@H](CO)NC(=O)[C@H](Cc1c[nH]cn1)NC(=O)[C@H](CCCNC(=N)N)NC(=O)[C@H](CC(C)C)NC(=O)[C@H](Cc1ccccc1)NC(=O)[C@H](CCC(=O)O)NC(=O)[C@H](C)NC(=O)[C@H](CC(C)C)NC(=O)[C@H](CCCNC(=N)N)NC(=O)[C@H](CCC(N)=O)NC(=O)[C@@H](NC(=O)[C@H](C)NC(=O)[C@@H]1CSSC[C@H](NC(=O)[C@@H](N)CCCCNC(=O)CC[C@H](NC(=O)CC[C@H](NC(=O)CCCCCCCCCCCCCCCCCCC(=O)O)C(=O)O)C(=O)O)C(=O)N[C@@H](CC(N)=O)C(=O)N[C@@H]([C@@H](C)O)C(=O)N[C@@H](C)C(=O)N[C@@H]([C@@H](C)O)C(=O)N1)[C@@H](C)O)C(=O)N1CCC[C@H]1C(=O)N[C@@H](CO)C(=O)N[C@@H](CO)C(=O)N[C@H](C(=O)N[C@@H](CC(N)=O)C(=O)N[C@H](C(=O)NCC(=O)N[C@@H](CO)C(=O)N[C@@H](CCCNC(=N)N)C(=O)N[C@H](C(=O)N[C@@H](Cc1ccc(O)cc1)C(N)=O)[C@@H](C)O)C(C)C)[C@@H](C)O` [Example 89] (H-K([γGlu-γGlu-C20 diacid])CNTATCATQRLAEFLRHSSPNFGAIPSSTNVGSRTY-NH2; disulfide 2-7 (inferred); N-terminus assumed), in data set [1], the “ThT pH 4.0 lag time (h)” value was found to be 43 h. For the same molecule, the solubility at 18 h in data set [2] (setting [4]) is no less than 200 µM; in data set [2] (setting [5]) it was 162 µM (≈ 738 µg/mL); in data set [2] (setting [6]), no less than 200 µM; in data set [2] (setting [7]), 172 µM (≈ 786 µg/mL); in data set [2] (setting [8]) it was 149 µM (≈ 681 µg/mL); in data set [2] (setting [9]), no less than 200 µM. The solubility at 18 h in data set [2] (setting [10]) and in data set [2] (setting [11]) was no less than 200 µM each time. In addition, in data set [3] (Table 7), the IC50 was 2.37 nM. The “Ratio rCT/rAmylin binding” value in data set [3] (setting [12]), in data set [3] (setting [13]) and in data set [3] (setting [14]) was 48.8 in each case.
